From the NIST ThermoML archive (doi:10.1016/j.tca.2007.03.018)
Numbers after ± are expanded uncertainties.

Assay: molar heat capacity at saturation pressure

C1C2CC3CC1CC(C14CC5CC(CC(C5)C1)C4)(C2)C3 [1,1'-biadamantane]
Details | molar heat capacity [J/K/mol]
306.17 K, Crystal 3, Small (less than 1 g) adiabatic calorimetry | 347.5 ± 1.6
307.06 K, Crystal 3, Small (less than 1 g) adiabatic calorimetry | 348.5 ± 1.6
307.82 K, Crystal 3, Small (less than 1 g) adiabatic calorimetry | 349.9 ± 1.6
309.07 K, Crystal 3, Small (less than 1 g) adiabatic calorimetry | 351.4 ± 1.6
309.47 K, Crystal 3, Small (less than 1 g) adiabatic calorimetry | 352.2 ± 1.6
311.07 K, Crystal 3, Small (less than 1 g) adiabatic calorimetry | 354 ± 1.6
311.11 K, Crystal 3, Small (less than 1 g) adiabatic calorimetry | 354.6 ± 1.6
312.75 K, Crystal 3, Small (less than 1 g) adiabatic calorimetry | 356.8 ± 1.6
313.06 K, Crystal 3, Small (less than 1 g) adiabatic calorimetry | 356.9 ± 1.6
314.38 K, Crystal 3, Small (less than 1 g) adiabatic calorimetry | 359.1 ± 1.6
315.04 K, Crystal 3, Small (less than 1 g) adiabatic calorimetry | 359.6 ± 1.6
316.02 K, Crystal 3, Small (less than 1 g) adiabatic calorimetry | 361.4 ± 1.6
317.02 K, Crystal 3, Small (less than 1 g) adiabatic calorimetry | 362.4 ± 1.7
317.64 K, Crystal 3, Small (less than 1 g) adiabatic calorimetry | 363.7 ± 1.7
319 K, Crystal 3, Small (less than 1 g) adiabatic calorimetry | 365.1 ± 1.7
319.26 K, Crystal 3, Small (less than 1 g) adiabatic calorimetry | 366 ± 1.7
320.52 K, Crystal 3, Small (less than 1 g) adiabatic calorimetry | 367.5 ± 1.7
320.8 K, Crystal 3, Small (less than 1 g) adiabatic calorimetry | 367.7 ± 1.7
321.41 K, Crystal 3, Small (less than 1 g) adiabatic calorimetry | 368.7 ± 1.7
322.3 K, Crystal 3, Small (less than 1 g) adiabatic calorimetry | 370.2 ± 1.7
322.43 K, Crystal 3, Small (less than 1 g) adiabatic calorimetry | 370.1 ± 1.7
323.19 K, Crystal 3, Small (less than 1 g) adiabatic calorimetry | 371.6 ± 1.7
324.05 K, Crystal 3, Small (less than 1 g) adiabatic calorimetry | 372.5 ± 1.7
324.09 K, Crystal 3, Small (less than 1 g) adiabatic calorimetry | 372.8 ± 1.7
324.98 K, Crystal 3, Small (less than 1 g) adiabatic calorimetry | 374.1 ± 1.7
325.67 K, Crystal 3, Small (less than 1 g) adiabatic calorimetry | 375 ± 1.7
325.87 K, Crystal 3, Small (less than 1 g) adiabatic calorimetry | 375.2 ± 1.7
326.76 K, Crystal 3, Small (less than 1 g) adiabatic calorimetry | 376.5 ± 1.7
327.28 K, Crystal 3, Small (less than 1 g) adiabatic calorimetry | 377.6 ± 1.7
327.65 K, Crystal 3, Small (less than 1 g) adiabatic calorimetry | 377.8 ± 1.7
328.53 K, Crystal 3, Small (less than 1 g) adiabatic calorimetry | 379.5 ± 1.7
328.89 K, Crystal 3, Small (less than 1 g) adiabatic calorimetry | 380.4 ± 1.7
329.42 K, Crystal 3, Small (less than 1 g) adiabatic calorimetry | 380.9 ± 1.7
330.31 K, Crystal 3, Small (less than 1 g) adiabatic calorimetry | 382.3 ± 1.7
330.5 K, Crystal 3, Small (less than 1 g) adiabatic calorimetry | 384 ± 1.7
331.19 K, Crystal 3, Small (less than 1 g) adiabatic calorimetry | 388.1 ± 1.8
332.05 K, Crystal 3, Small (less than 1 g) adiabatic calorimetry | 401.3 ± 1.8
332.08 K, Crystal 3, Small (less than 1 g) adiabatic calorimetry | 395.6 ± 1.8
332.9 K, Crystal 3, Small (less than 1 g) adiabatic calorimetry | 409.2 ± 1.8
333.64 K, Crystal 3, Small (less than 1 g) adiabatic calorimetry | 409.5 ± 1.9
333.73 K, Crystal 3, Small (less than 1 g) adiabatic calorimetry | 418.7 ± 1.9
334.55 K, Crystal 3, Small (less than 1 g) adiabatic calorimetry | 433.2 ± 2
335.12 K, Crystal 3, Small (less than 1 g) adiabatic calorimetry | 446.3 ± 2
335.33 K, Crystal 3, Small (less than 1 g) adiabatic calorimetry | 453.8 ± 2.1
336.07 K, Crystal 2, Small (less than 1 g) adiabatic calorimetry | 469.6 ± 2.5
336.53 K, Crystal 2, Small (less than 1 g) adiabatic calorimetry | 499.5 ± 2.2
336.81 K, Crystal 2, Small (less than 1 g) adiabatic calorimetry | 461.5 ± 2.3
337.59 K, Crystal 2, Small (less than 1 g) adiabatic calorimetry | 432.8 ± 1.9
337.89 K, Crystal 2, Small (less than 1 g) adiabatic calorimetry | 481.7 ± 2.3
338.4 K, Crystal 2, Small (less than 1 g) adiabatic calorimetry | 410.4 ± 2.1
339.25 K, Crystal 2, Small (less than 1 g) adiabatic calorimetry | 400.5 ± 6.1
339.33 K, Crystal 2, Small (less than 1 g) adiabatic calorimetry | 423.8 ± 6.1
340.12 K, Crystal 2, Small (less than 1 g) adiabatic calorimetry | 396.8 ± 1.8
340.86 K, Crystal 2, Small (less than 1 g) adiabatic calorimetry | 403.4 ± 2.3
340.99 K, Crystal 2, Small (less than 1 g) adiabatic calorimetry | 393.9 ± 2.3
341.87 K, Crystal 2, Small (less than 1 g) adiabatic calorimetry | 393.4 ± 1.8
342.42 K, Crystal 2, Small (less than 1 g) adiabatic calorimetry | 398.5 ± 1.8
342.75 K, Crystal 2, Small (less than 1 g) adiabatic calorimetry | 393.3 ± 1.8
343.63 K, Crystal 2, Small (less than 1 g) adiabatic calorimetry | 393.7 ± 1.8
343.99 K, Crystal 2, Small (less than 1 g) adiabatic calorimetry | 395.4 ± 1.8
344.52 K, Crystal 2, Small (less than 1 g) adiabatic calorimetry | 394.3 ± 1.8
345.4 K, Crystal 2, Small (less than 1 g) adiabatic calorimetry | 395 ± 1.8
345.57 K, Crystal 2, Small (less than 1 g) adiabatic calorimetry | 396.6 ± 1.8
346.29 K, Crystal 2, Small (less than 1 g) adiabatic calorimetry | 395.9 ± 1.8
347.15 K, Crystal 2, Small (less than 1 g) adiabatic calorimetry | 397.4 ± 1.8
347.17 K, Crystal 2, Small (less than 1 g) adiabatic calorimetry | 396.8 ± 1.8
348.06 K, Crystal 2, Small (less than 1 g) adiabatic calorimetry | 397.6 ± 1.8
348.72 K, Crystal 2, Small (less than 1 g) adiabatic calorimetry | 398.5 ± 1.8
348.95 K, Crystal 2, Small (less than 1 g) adiabatic calorimetry | 398.4 ± 1.8
349.84 K, Crystal 2, Small (less than 1 g) adiabatic calorimetry | 399.5 ± 1.8
350.3 K, Crystal 2, Small (less than 1 g) adiabatic calorimetry | 400 ± 1.8
351.09 K, Crystal 2, Small (less than 1 g) adiabatic calorimetry | 401.1 ± 1.8
351.88 K, Crystal 2, Small (less than 1 g) adiabatic calorimetry | 403.6 ± 1.8
352.68 K, Crystal 2, Small (less than 1 g) adiabatic calorimetry | 402.9 ± 1.8
353.46 K, Crystal 2, Small (less than 1 g) adiabatic calorimetry | 405.6 ± 1.8
354.28 K, Crystal 2, Small (less than 1 g) adiabatic calorimetry | 404.8 ± 1.8
355.03 K, Crystal 2, Small (less than 1 g) adiabatic calorimetry | 407.3 ± 1.8
355.88 K, Crystal 2, Small (less than 1 g) adiabatic calorimetry | 406.9 ± 1.8
356.61 K, Crystal 2, Small (less than 1 g) adiabatic calorimetry | 409.2 ± 1.8
357.47 K, Crystal 2, Small (less than 1 g) adiabatic calorimetry | 408.7 ± 1.8
358.18 K, Crystal 2, Small (less than 1 g) adiabatic calorimetry | 411.3 ± 1.8
359.05 K, Crystal 2, Small (less than 1 g) adiabatic calorimetry | 411 ± 1.8
359.75 K, Crystal 2, Small (less than 1 g) adiabatic calorimetry | 413.4 ± 1.9
360.64 K, Crystal 2, Small (less than 1 g) adiabatic calorimetry | 412.9 ± 1.9
361.32 K, Crystal 2, Small (less than 1 g) adiabatic calorimetry | 415.4 ± 1.9
362.22 K, Crystal 2, Small (less than 1 g) adiabatic calorimetry | 414.6 ± 1.9
362.88 K, Crystal 2, Small (less than 1 g) adiabatic calorimetry | 417.5 ± 1.9
363.82 K, Crystal 2, Small (less than 1 g) adiabatic calorimetry | 416.7 ± 1.9
364.44 K, Crystal 2, Small (less than 1 g) adiabatic calorimetry | 419.7 ± 1.9
365.3 K, Crystal 2, Large sample (1 g) DSC | 422.2 ± 10
365.4 K, Crystal 2, Small (less than 1 g) adiabatic calorimetry | 418.8 ± 1.9
366 K, Crystal 2, Small (less than 1 g) adiabatic calorimetry | 421.6 ± 1.9
366.98 K, Crystal 2, Small (less than 1 g) adiabatic calorimetry | 420.9 ± 1.9
367.55 K, Crystal 2, Small (less than 1 g) adiabatic calorimetry | 423.3 ± 1.9
368.55 K, Crystal 2, Small (less than 1 g) adiabatic calorimetry | 423 ± 1.9
